Key:
[1] = molecular target: T1, System Xc^− cystine/glutamate antiporter (Homo sapiens, UniProt Q9UPY5); test: [^14C]L-Cystine uptake assay; format: cell-based; conditions: H4 cells, 15 min preincubation, 1 hour at 37° C., sodium-free HEPES buffer; read-out: [^14C] L-Cystine uptake assay (range of pIC50) (converted)
T1 sequence (Q9UPY5 1-501): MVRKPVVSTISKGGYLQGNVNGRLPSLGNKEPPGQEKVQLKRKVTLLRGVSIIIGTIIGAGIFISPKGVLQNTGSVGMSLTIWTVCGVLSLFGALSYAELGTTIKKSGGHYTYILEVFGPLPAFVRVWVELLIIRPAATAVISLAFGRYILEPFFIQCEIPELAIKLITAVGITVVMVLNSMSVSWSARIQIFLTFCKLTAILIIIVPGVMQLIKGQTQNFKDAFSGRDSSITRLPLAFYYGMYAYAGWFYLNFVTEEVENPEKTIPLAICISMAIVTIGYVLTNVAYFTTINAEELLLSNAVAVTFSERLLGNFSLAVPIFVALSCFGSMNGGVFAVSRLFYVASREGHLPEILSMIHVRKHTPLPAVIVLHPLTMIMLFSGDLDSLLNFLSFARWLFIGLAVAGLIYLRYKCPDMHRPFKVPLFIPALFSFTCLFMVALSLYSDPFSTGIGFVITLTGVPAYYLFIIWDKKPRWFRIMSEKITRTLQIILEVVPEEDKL
T1 sequence (P08195 1-529 partner): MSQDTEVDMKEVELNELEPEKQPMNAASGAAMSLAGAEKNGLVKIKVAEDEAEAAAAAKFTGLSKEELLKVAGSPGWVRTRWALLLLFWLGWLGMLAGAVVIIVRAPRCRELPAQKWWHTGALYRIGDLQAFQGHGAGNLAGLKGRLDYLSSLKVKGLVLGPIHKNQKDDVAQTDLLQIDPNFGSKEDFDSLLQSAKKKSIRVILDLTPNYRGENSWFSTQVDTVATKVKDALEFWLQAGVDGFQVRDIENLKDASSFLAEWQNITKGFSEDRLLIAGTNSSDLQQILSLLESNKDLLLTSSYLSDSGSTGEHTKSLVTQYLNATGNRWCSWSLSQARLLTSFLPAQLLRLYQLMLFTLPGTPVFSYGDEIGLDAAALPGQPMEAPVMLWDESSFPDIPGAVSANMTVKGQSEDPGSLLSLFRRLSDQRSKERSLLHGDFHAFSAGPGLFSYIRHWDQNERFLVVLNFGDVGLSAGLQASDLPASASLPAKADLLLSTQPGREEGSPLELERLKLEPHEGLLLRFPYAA
Text: (§1) By measuring respectively, the concentration of glutamate released outside the cell and the L-cystine uptaken in the cell, with increasing concentrations of compounds of formula (I) according to the present invention, the efficacy of said compounds to inhibit the System Xc^− function can be evaluated.
(§2) The efficacy of the compounds to inhibit system Xc^− is represented by measuring the IC50 which corresponds to the concentration of compound necessary to inhibit 50% of the signals from the two control groups; DMSO 1% and Erastin 50 μM in the respective assays. pIC50 values correspond to −log of the IC50 in Molar.
In this assay, the medium is devoid of sodium to prevent the transport of glutamate by sodium-dependent excitatory amino acid transporters (EAATs). H4 cells were plated on a 96-well CytoStar-T scintillating microplate (PerkinElmer) at 5×10^4 cells/well in the medium described above. After 1 day, cells were washed one time with the sodium-free HEPES buffer and preincubated with test compounds of Formula (I) (1% final DMSO) for 15 min. Uptake was initiated by adding 0.5 μM L-[1,2, 1′,2′-^14C] Cystine (0.02 mCi/mL, PerkinElmer, Waltham, US) and 4.5 μM L-Cystine (Sigma-Aldrich). After 1 hour at 37° C., plates were counted in a MicroBeta^2 microplate counter (PerkinElmer).

[2] = molecular target: T1, System Xc^− cystine/glutamate antiporter; test: Cystine-induced glutamate release assay; format: cell-based; design: endogenous in cells; host or cells: H4 cells; conditions: H4 cells, 50 μM L-Cystine, 2 hours, sodium-free HEPES buffer; read-out: Cystine-induced glutamate release assay (range of pIC50) (converted)
Text: as §1, §2
Measurement of cystine-induced glutamate release indicates levels of glutamate (outside of the cell) that are dependent on system Xc^− antiporter function. Upon the addition of L-Cystine to H4 cells, intracellular glutamate is counter-transported and exported in the supernatant.
In this assay, the medium is devoid of sodium to prevent the transport of glutamate by sodium-dependent excitatory amino acid transporters (EAATs). H4 cells were plated on 384-well culture plate at 1×10^4 cells/well in Dulbecco's Modified Eagle Medium (DMEM) with L-glutamine, penicillin/streptomycin and 10% fetal bovine serum (all from ThermoFisher Scientific) and incubated in a humidified CO2 incubator at 37° C. After 2 days, cells were washed 4 times with prewarmed sodium-free HEPES buffer (contents in mM: HEPES 10, KCl 5.4, CaCl2 2.5, MgCl2 1, KH2PO4 0.4, D-Glucose 5, Choline chloride 140), pH 7.4. Glutamate release was induced by addition of 50 μM of L-Cystine (Sigma-Aldrich), together with a test compound of Formula (I) at 1% final DMSO concentration. After 2 hours of incubation in the culture incubator, supernatants were transferred to a low-binding polypropylene 384-well plate to determine L-glutamate concentration using Amplex™ Red Glutamic Acid Assay Kit (ThermoFisher Scientific). Briefly, 10 μL of Amplex™ Red working solution was added to 10 μL of the supernatant, then the mixture was incubated for 30 min at 37° C. Fluorescence intensity was measured by EnVision microplate reader (PerkinElmer).

Row | Compound | IC50 [1] [µM] | IC50 [2] [µM]
1 | COc1cnc2c(c1)-c1cnc(C)cc1N(CC(=O)Nc1ccc(C(C)=O)cc1)C(=O)C2C (single isomer, unassigned) [#12] | 0.0398 to 0.1 | 0.0398 to 0.1
2 | COc1nccc2c1-c1cccnc1C(C)C(=O)N2CC(=O)Nc1ccc(C(C)=O)cc1 (single isomer, unassigned) [#14] | 0.0158 to 0.0398 | 0.0398 to 0.1
3 | CC(=O)c1ccc(NC(=O)CN2C(=O)C(C)c3ncccc3-c3c2cc(C)nc3F)cc1O (single isomer, unassigned) [#16] | < 0.0158 | 0.0158 to 0.0398
4 | COc1cc2c(c(F)n1)-c1cc(F)cnc1C(C)C(=O)N2CC(=O)Nc1ccc(C(C)=O)cc1 (single isomer, unassigned) [#17] | < 0.0158 | 0.0398 to 0.1
5 | Cc1cc2c(c(F)n1)-c1cc(F)cnc1C(C)C(=O)N2CC(=O)Nc1ccc2c(c1)OCC2=O (single isomer, unassigned) [#18] | 0.0398 to 0.1 | 0.0398 to 0.1
6 | CC(=O)c1ccc(NC(=O)CN2C(=O)C(C)c3ncc(F)cc3-c3cc(C#N)c(C)cc32)cc1 (single isomer, unassigned) [#19] | < 0.0158 | 0.0158 to 0.0398
7 | COc1cnc2c(c1)-c1c(cc(C)nc1F)N(CC(=O)Nc1ccc(C(C)=O)cc1)C(=O)C2C (single isomer, unassigned) [#20] | 0.0158 to 0.0398 | 0.0398 to 0.1
8 | COc1cc2c(cn1)-c1cc(F)cnc1C(C)C(=O)N2CC(=O)Nc1ccc(C(C)=O)cc1 (single isomer, unassigned) [#32] | 0.0158 to 0.0398 | 0.1 to 0.501
9 | CC(=O)c1ccc(NC(=O)CN2C(=O)C(C)c3ncc(F)cc3-c3c2cc(C)nc3F)cc1O (single isomer, unassigned) [#33] | < 0.0158 | < 0.0158
10 | Cc1cc2c(c(F)n1)-c1cccnc1[C@@H](C)C(=O)N2CC(=O)Nc1ccc(C(=O)C2CC2)cc1 [#2] | 0.1 to 0.501 | 0.1 to 0.501
11 | CC(=O)c1ccc(NC(=O)CN2C(=O)C(C)c3ncc(F)cc3-c3cnc(C)cc32)cc1 (stereo not shown) [#4] | 0.0398 to 0.1 | 0.0398 to 0.1
12 | CC(=O)c1ccc(NC(=O)CN2C(=O)[C@H](C)c3ncc(F)cc3-c3c2cc(C)nc3Cl)cc1 [#5] | < 0.0158 | < 0.0158
13 | CC(=O)c1ccc(NC(=O)CN2C(=O)C(C)c3ncccc3-c3c2cc(N2CC(F)(F)C2)nc3F)cc1 (stereo not shown) [#7] | < 0.0158 | 0.0398 to 0.1
14 | CC(=O)c1ccc(NC(=O)CN2C(=O)Cc3ncccc3-c3c2cc(N2CC(F)C2)nc3F)cc1 [#21] | < 0.0158 | 0.0158 to 0.0398
15 | CC(=O)c1ccc(NC(=O)CN2C(=O)Cc3ncccc3-c3c2cc(N2CC(F)(F)C2)nc3F)cc1 [#22] | 0.0158 to 0.0398 | 0.0398 to 0.1
16 | CC(=O)c1ccc(NC(=O)CN2C(=O)C(C)c3ncccc3-c3c2cc(C)nc3F)cc1F (stereo not shown) [#24] | 0.0158 to 0.0398 | 0.0398 to 0.1
17 | CC(=O)c1ccc(NC(=O)CN2C(=O)C(C)c3ncccc3-c3c2cc(N2CC(C)(O)C2)nc3F)cc1 (stereo not shown) [#25] | 0.0158 to 0.0398 | 0.0398 to 0.1
18 | CC(=O)c1ccc(NC(=O)CN2C(=O)C(C)c3ncccc3-c3c2cc(N2CC(C)(F)C2)nc3F)cc1 (stereo not shown) [#26] | 0.0158 to 0.0398 | 0.1 to 0.501
19 | CC(=O)c1ccc(NC(=O)CN2C(=O)Cc3ncccc3-c3c2cc(N2CC(C)(O)C2)nc3F)cc1 [#27] | 0.0158 to 0.0398 | 0.0398 to 0.1
20 | CC(=O)c1ccc(NC(=O)CN2C(=O)C(C)c3nscc3-c3c2cc(C)nc3F)cc1 (stereo not shown) [#28] | 0.1 to 0.501 | 0.0398 to 0.1
21 | CC(=O)c1ccc(NC(=O)CN2C(=O)C(C)c3ncccc3-c3c2cc(C2CCC2)nc3F)cc1 (stereo not shown) [#31] | 0.0158 to 0.0398 | 0.0158 to 0.0398
22 | CC(=O)c1ccc(NC(=O)CN2C(=O)C(C)c3cnc(F)cc3-c3c2cc(C)nc3F)cc1 (stereo not shown) [#34] | 0.0398 to 0.1 | 0.0398 to 0.1
23 | CC(=O)c1ccc(NC(=O)CN2C(=O)C(C)c3ncccc3-c3c(F)cc(N4CC(F)C4)cc32)cc1 (stereo not shown) [#35] | < 0.0158 | 0.0158 to 0.0398

More lines, now with the values ahead:

Row | IC50 [1] [µM] | IC50 [2] [µM] | Compound
24 | < 0.0158 | < 0.0158 | CC(=O)c1ccc(NC(=O)CN2C(=O)C(C)c3ncccc3-c3c2cc(C)nc3Cl)cc1 (single isomer, unassigned) [#6]
25 | 0.0158 to 0.0398 | 0.0158 to 0.0398 | COc1cc2c(c(F)n1)-c1cccnc1C(C)C(=O)N2CC(=O)Nc1ccc(C(C)=O)cc1 (single isomer, unassigned) [#11]
26 | < 0.0158 | 0.0158 to 0.0398 | COc1nc(C)cc2c1-c1cccnc1C(C)C(=O)N2CC(=O)Nc1ccc(C(C)=O)cc1 (single isomer, unassigned) [#13]
27 | 0.0398 to 0.1 | 0.0398 to 0.1 | CC(=O)c1ccc(NC(=O)CN2C(=O)C(C)c3ncccc3-c3c2cc(F)nc3F)cc1 (single isomer, unassigned) [#23]
28 | 0.0158 to 0.0398 | 0.0158 to 0.0398 | CC(=O)c1ccc(NC(=O)CN2C(=O)[C@H](C)c3ncccc3-c3c2cc(C)nc3F)cc1 [#1]
29 | 0.0158 to 0.0398 | 0.0158 to 0.0398 | CC(=O)c1ccc(NC(=O)CN2C(=O)[C@H](C)c3ncc(F)cc3-c3c2cc(C)nc3F)cc1 [#3]
30 | < 0.0158 | < 0.0158 | CC(=O)c1ccc(NC(=O)CN2C(=O)C(C)c3ncccc3-c3c2cc(N2CC(F)C2)nc3F)cc1 (stereo not shown) [#8]
31 | 0.0398 to 0.1 | 0.1 to 0.501 | CC(=O)c1ccc(NC(=O)CN2C(=O)Cc3ncccc3-c3c2cc(N2CC4(C2)CC4(F)F)nc3Cl)cc1 [#9]
32 | 0.0398 to 0.1 | 0.1 to 0.501 | CC(=O)c1ccc(NC(=O)CN2C(=O)Cc3ccccc3-c3c2cc(C)nc3F)cc1 [#10]
33 | 0.0398 to 0.1 | 0.0398 to 0.1 | CCC(=O)c1ccc(NC(=O)CN2C(=O)[C@H](C)c3ncccc3-c3c2cc(C)nc3F)cc1 [#15]
34 | 0.0398 to 0.1 | 0.0398 to 0.1 | CC(=O)c1ccc(NC(=O)CN2C(=O)C(C)c3ncccc3-c3c2cc(C2(O)CCC2)nc3F)cc1 (stereo not shown) [#29]
35 | 0.1 to 0.501 | 0.1 to 0.501 | CC(=O)c1ccc(NC(=O)CN2C(=O)C(C)c3ncc(F)cc3-c3c2cc(CO)nc3F)cc1 (stereo not shown) [#30]

— patent US20260226057A1, “TRICYCLIC AZEPINONE DERIVATIVES AS SYSTEM XC INHIBITORS” (UCB BIOPHARMA SRL, priority 2023, published 2026)
